Data published in patent US5281738A, “bis[4-(2,6-di-alkyl)phenol]silane derivatives as antiatherosclerotic agents” (Merrell Dow Pharmaceuticals Inc., priority 1992, dated 1994).
pIC50: −log10 of the molar value.

Tested on: human LDL (LDL lipid peroxidation)
Assay: Inhibition of LDL lipid peroxidation (cupric sulfate-induced, thiobarbituric acid assay)
Format: biochemical
Conditions: 250 μg human LDL, compound preincubated 30 min at 42 °C, cupric sulfate 12.5 μM final, 37 °C, 2.5 hours, read-out: ID50 (concentration of test compound required to inhibit 50% of LDL lipid peroxidation)
Experimental: The degree of inhibition of LDL lipid peroxidation was determined by the method of Yagi et al. [Vitamins 39, 105 (1968)].
A 0.5 mL solution containing 250 micrograms (μg) of human LDL was incubated with the test compound, in amounts varying from 0 to 30 μg, for 30 minutes at 42° C. To this mixture was added 1 mL of a cupric sulfate solution (final concentration 12.5 μM) and the mixture was incubated at 37° C. for 2.5 hours. The amount of peroxidation of LDL lipid was determined by the thiobarbituric acid assay. The concentration of test compound required to inhibit 50% of LDL lipid peroxidation (ID50) was determined.

For `CC(C)(C)c1cc(SC[Si](C)(C)CSc2cc(C(C)(C)C)c(O)c(C(C)(C)C)c2)cc(C(C)(C)C)c1O` [Compound A, 4,4'-[(Dimethylsilylene)bis(methylenethio)]-bis[2,6-di-t-butyl]phenol], the pIC50 was 5.02.
